Test results published in US8741852B2, “Peptides having antimicrobial activity” (Universiti Malaya, priority 2012, dated 2014).
Where two headings read alike, the source gives them in different places. No end group written: not given here.

Assays:
[1] = test system: penicilin-intermediate pneumococci
Source text: (§1) The antimicrobial peptides are thereafter tested using broth microdilution assay 5×10^5 cfu/ml against a total of 60 pneumococcal isolates (20 isolates for each penicillin-susceptible, -intermediate, and -resistant pneumococci) to determine their minimum inhibitory concentration (MIC).

[2] = test system: penicilin-susceptible pneumococci
Source text: as §1

[3] = test system: penicillin-resistant pneumococci
Source text: as §1

[4] = test system: Streptococcus pneumoniae; assay: MIC by broth microdilution against all 60 pneumococcal isolates (overall); type: cell-based
Source text: as §1

[5] = test system: S. aureus; type: cell-based, Staphylococcus aureus
Protocol: (§2) Apart from Streptococcus pneumonia, the antimicrobial peptides are also tested for antimicrobial activity against eight common bacterial pathogens of both gram-types as shown in Table 2. […] Testing against the gram-negative Acinetobacter baumannii (31.25 μg/ml) and Citrobacter spp.

[6] = test system: E. coli; type: cell-based, Escherichia coli
Protocol: as §2

[7] = test system: A. baumannii; type: cell-based, Acinetobacter baumannii
Protocol: as §2

[8] = test system: E. cloacae
Protocol: as §2

[9] = test system: K. pneumoniae; type: cell-based, Klebsiella pneumoniae
Protocol: as §2

[10] = test system: Citrobacter spp.; type: cell-based
Protocol: as §2

[11] = test system: eight common bacterial pathogens of both gram-types; type: cell-based
Protocol: as §2

[12] = test system: bacterial pathogens; assay: Spectrum of antibacterial activity (summary in words); type: cell-based; conditions: against Streptococcus pneumoniae, Acinetobacter baumannii, Staphylococcus aureus, methicillin-resistant Staphylococcus aureus, Escherichia coli, Citrobacter spp.
[13] = test system: P. aeruginosa; type: cell-based, Pseudomonas aeruginosa
Protocol: as §2

[14] = Pseudomonas aeruginosa, Enterococcus cloacae, Klebsiella pneumoniae
[15] = Pseudomonas aeruginosa, Enterococcus cloacae

| Substance | EP (effective percentage, isolates inhibited within the effective range) [1] [%] | ER (effective range of minimum inhibitory concentration) [1] [µg/mL] | EP (effective percentage, isolates inhibited within the effective range) [2] [%] | ER (effective range of minimum inhibitory concentration) [2] [µg/mL] | EP (effective percentage, isolates inhibited within the effective range) [3] [%] | ER (effective range of minimum inhibitory concentration) [3] [µg/mL] | Overall EP [4] [%] | MIC [5] [µg/mL] | MIC [8] [µg/mL] | MIC [9] [µg/mL] | MIC [10] [µg/mL] | antimicrobial activity [12, 14] | antimicrobial activity [12, 15] | also measured |
| --- | --- | --- | --- | --- | --- | --- | --- | --- | --- | --- | --- | --- | --- | --- |
| GLFDIWAWWRWRR-NH2 (C-terminus assumed) [SEQ ID NO:2, Gly-Leu-Phe-Asp-Ile-Trp-Ala-Trp-Trp-Arg-Trp-Arg-Arg] | 100 | 7.81 to 250 | 100 | 15.63 to 250 | 100 | 15.63 to 250 | 100 | 31.25 | >250 | >250 | – | – | – | MIC level against Staphylococcus aureus as compared to methicillin-resistant Staphylococcus aureus [5]: two fold lower; MIC ([6]; Gram-negative): 250 µg/mL; MIC ([7]; Gram-negative): 31.25 µg/mL; MIC ([10]; Gram-negative): 62.5 µg/mL; activity against the other bacteria ([11]; bacteria of Table 2 other than S. aureus, MRSA, A. baumannii, Citrobacter spp., E. coli): non-active; antimicrobial activity [12]: has antimicrobial activity |
| GLFDIWKWWRWRR-NH2 (C-terminus assumed) [SEQ ID NO:3, Gly-Leu-Phe-Asp-Ile-Trp-Lys-Trp-Trp-Arg-Trp-Arg-Arg] | 100 | 7.81 to 250 | 100 | 7.81 to 62.5 | 100 | 15.63 to 62.5 | 100 | – | 31.25 | 62.5 | 15.63 | have antimicrobial activity | – | range of minimum inhibitory concentration [11]: 7.81 to 125 µg/mL |
| GLFDIWKKWRWRR-NH2 (C-terminus assumed) [SEQ ID NO:4, Gly-Leu-Phe-Asp-Ile-Trp-Lys-Lys-Trp-Arg-Trp-Arg-Arg] | – | – | – | – | – | – | 100 | – | – | – | – | – | have antimicrobial activity | – |
| GLFDIWKKLRWRR-NH2 (C-terminus assumed) [SEQ ID NO:5, Gly-Leu-Phe-Asp-Ile-Trp-Lys-Lys-Leu-Arg-Trp-Arg-Arg] | 100 | 15.63 to 125 | 100 | 15.63 to 125 | 100 | 31.25 to 125 | 100 | 125 | 125 | 250 | 31.25 | have antimicrobial activity | – | MIC [6]: 31.25 µg/mL; MIC [13]: 31.25 µg/mL; MIC [7]: 31.25 µg/mL; range of minimum inhibitory concentrations [11]: 31.25 to 125 µg/mL |
| GLFDKWAWWRWRR-NH2 (C-terminus assumed) [SEQ ID NO:1, Gly-Leu-Phe-Asp-Lys-Trp-Ala-Trp-Trp-Arg-Trp-Arg-Arg] | – | – | – | – | – | – | 100 | – | – | – | – | – | have antimicrobial activity | – |
